From patent US20190022225A1, “PROTOCOL FOR INCREASING LIFE EXPECTANCY IN A TEST SUBJECT” (Mayo Foundation for Medical Education and Research, priority 2015, published 2019)
Entries after “also recorded” stand apart in the source; their conditions may differ. Read-outs that look alike come from different tables or passages of the source.

Key:
[1] = tested on: senescent (irradiated) IMR90 cells; assay: CellTiter-Glo cell viability assay, senescent IMR90; assay type: cell-based, human
Description: (§1) To determine whether ABT-263 is selectively toxic to senescent cells compared to non-senescent cells, a cell viability assay was used to assess cell survival following treatment with ABT-263. IMR90 cells (human primary lung fibroblasts (IMR90) (IMR-90 (ATCC® CCL-186™, Mannassas, Va.) were seeded in six well plates, and cells were induced to senescence with 10 Gy of ionizing radiation (IR) (Day 0). The media was refreshed every 3 days. The senescent phenotype is allowed to develop for 7 days at which point a cell count was made to determine the baseline number of cells followed by seeding into 96-well plates. On day 8, the senescent cells (irradiated) and the non-senescent cells (the non-radiated cells), were exposed to serial dilutions of ABT-263 for a period of 3 days. ABT-263 concentrations ranged from 0.5 nM to 3 μM. Each condition was seeded in triplicate.
(§2) After three days of treatment (Day 11), cells were assayed for cell survival using the commercially available CellTiter-Glo® (CTG) Luminescent Cell Viability Assay (Promega Corporation, Madison, Wis.). The assay determines the number of viable cells in culture based on the quantitation of ATP present which is an indicator of metabolically active cells.
(§3) The experiments performed for assessing the effect of these other Bcl-2 inhibitors were performed essentially as described in Example 7. Cells were exposed to ABT-199 at serial dilution concentrations ranging from 15 nM to 100 μM (FIGS. 26 and 27). Cells were exposed to Obatoclax at concentrations ranging from 1.4 nM to 9 μM (FIG. 28).
(§4) The effect of ABT-263 in combination with the Akt inhibitor MK-2206 was tested for selective toxicity of senescent cells compared to non-senescent cells in IMR90 cells. The methods of Example 7 were repeated except that cell cultures were exposed to 10 nM MK-2206 (Selleckem, Cat# S1078) in addition to serial dilutions of ABT-263.

[2] = tested on: non-senescent IMR90 cells; assay: CellTiter-Glo cell viability assay, non-senescent IMR90; assay type: cell-based; conditions: Homo sapiens, IMR-90, 72 h, IMR90, 3 days
Description: as §1, §2, §3, §4

Senescent cells (SnC) = assay: Cell survival EC50 of MDM2 inhibitors, senescent cells; conditions: for EC50: read-out: Cell survival data EC50 SnC
[3] = tested on: quiescent high density non senescent cells (HD NsC); assay: Cell survival EC50 of MDM2 inhibitors, quiescent high density non senescent cells; conditions: read-out: Cell survival data EC50 HD NsC
p16-3MR mice = assay: Senescence induced by chemotherapeutic drugs in p16-3MR mice (luminescence, skin mRNA); assay type: in vivo, mouse; conditions: for level of senescent cells (luminescence): p<0.05
Description: Paclitaxel induces senescence and SASP in p16-3MR transgenic mice. Groups of mice (n=4) were treated three times every two days with 20 mg/kg paclitaxel or vehicle. […] The level of mRNA in skin was determined for each of the target genes: p16, 3MR transgene, and IL-6.
To examine senescence induced by different chemotherapeutic drugs, groups of p16-3MR animals (n=4) were treated with thalidomide (100 mg/kg; 7 daily injections); romidepsin (1 mg/kg; 3 injections); pomalidomide (5 mg/kg; 7 daily injections); lenalidomide (50 mg/kg; 7 daily injections); 5-azacytidine (5 mg/kg; 3 injections) and compared with doxorubicin (10 mg/kg, 2-4 injections over 7 days).

SMILES: CC1(C)CCC(CN2CCN(c3ccc(C(=O)NS(=O)(=O)c4ccc(NCC5CCOCC5)c([N+](=O)[O-])c4)c(Oc4cnc5[nH]ccc5c4)c3)CC2)=C(c2ccc(Cl)cc2)C1 [ABT-199, 4-[4-[[2-(4-Chlorophenyl)-4,4-dimethylcyclohex-1-en-1-yl]methyl]piperazin-1-yl]-N-[[3-nitro-4-[[(tetrahydro-2H-pyran-4-yl)methyl]amino]phenyl]sulfonyl]-2-[(1H-pyrrolo[2,3-b]pyridin-5-yl)oxy]benzamide]
- IC50 ([1]; Homo sapiens, IMR-90, 72 h, IMR90, 3 days, read-out: IC50 in senescent cells): 6.9 to 12.4 µM
- selective targeting of senescent cells over non-senescent cells ([1]; IMR90): inability
- IC50 ([2]; CellTiter-Glo, read-out: IC50 on non-senescent cells): 6 to 15.8 µM

SMILES: CC(C)[C@@H](CS(=O)(=O)C(C)C)N1C(=O)[C@@](C)(CC(=O)O)C[C@H](c2cccc(Cl)c2)[C@H]1c1ccc(Cl)cc1 [AMG-232, 2-((3R,5R,6S)-5-(3-chlorophenyl)-6-(4-chlorophenyl)-1-((S)-1-(isopropylsulfonyl)-3-methylbutan-2-yl)-3-methyl-2-oxopiperidin-3-yl)acetic acid]
- EC50 dose ratio HD NsC/SnC (Senescent cells (SnC)): 1.2
- EC50 (Senescent cells (SnC)): 3.4 µM
- EC50 [3]: 4.1 µM

SMILES: O=C(/C=C/c1ccc(I)cc1)c1ccc(B(O)O)cc1 [Boronate, trans-4-Iodo, 4′-boranyl-chalcone]
- EC50 dose ratio HD NsC/SnC (Senescent cells (SnC)): 14.1
- selectivity for senescent cells over quiescent cells (Senescent cells (SnC)): particularly high selectivity
- selectivity for senescent cells over quiescent cells (Senescent cells (SnC); listed as boronate): high specificity
- EC50 (Senescent cells (SnC)): 10.8 µM
- EC50 [3]: 153 µM

SMILES: O=C1c2c(c(-c3ccccc3)nn2Cc2ccccc2)C(c2ccc(Br)cc2)N1CCCn1ccnc1 (centres unmarked) [CAY10681, 4-(4-bromophenyl)-4,5-dihydro-5-[3-(1H-imidazol-1-yl)propyl]-3-phenyl-1-(phenylmethyl)-pyrrolo[3,4-c]pyrazol-6(1H)-one]
- EC50 dose ratio HD NsC/SnC (Senescent cells (SnC)): 1.6
- EC50 (Senescent cells (SnC)): 11 µM
- EC50 [3]: 17.6 µM

SMILES: O=C1c2c(c(-c3ccccc3)nn2Cc2ccc(F)cc2)C(c2ccc(Br)cc2)N1CCCn1ccnc1 (centres unmarked) [CAY10682, 4-(4-bromophenyl)-1-[(4-fluorophenyl)methyl]-4,5-dihydro-5-[3-(1H-imidazol-1-yl)propyl]-3-phenyl-pyrrolo[3,4-c]pyrazol-6(1H)-one]
- EC50 dose ratio HD NsC/SnC (Senescent cells (SnC)): 1.3
- EC50 (Senescent cells (SnC)): 11.2 µM
- EC50 [3]: 14.3 µM

SMILES: c1ccc2c(CCNc3ccc(Nc4ccncc4)cc3)c[nH]c2c1 [JNJ 26854165, N1-(2-(1H-indol-3-yl)ethyl)-N4-(pyridin-4-yl)benzene-1,4-diamine]
- EC50 dose ratio HD NsC/SnC (Senescent cells (SnC)): 6.5
- selectivity for senescent cells over quiescent cells (Senescent cells (SnC)): high specificity; also recorded: particularly high selectivity
- EC50 (Senescent cells (SnC)): 1 µM
- EC50 [3]: 6.6 µM

SMILES: CCCCn1c(=O)[nH]c(O)c(C2NCCc3c2[nH]c2ccccc32)c1=O (centres unmarked) [MEL23, 3-Butyl-6-hydroxy-5-(2,3,4,9-tetrahydro-1H-pyrido[3,4-b]indol-1-yl)pyrimidine-2,4(1H,3H)-dione]
- EC50 dose ratio HD NsC/SnC (Senescent cells (SnC)): 5.2
- selectivity for senescent cells over quiescent cells (Senescent cells (SnC); listed as Me123): high specificity; also recorded: particularly high selectivity
- EC50 (Senescent cells (SnC)): 4 µM
- EC50 [3]: 20.9 µM

SMILES: Cn1c(=O)c([N+](=O)[O-])c(Cl)c2ccccc21 [ML214]
- level of killing of senescent cells versus non-senescent cells ([1]; irradiated and non-senescent IMR90): comparable to the level of killing of non-senescent cells

SMILES: COC1=CC(c2cc3ccccc3[nH]2)=N/C1=C\c1[nH]c(C)cc1C [Obatoclax]
- IC50 ([2]; read-out: IC50 in non-senescent cells): 0.075 µM

SMILES: COc1cc(C(=O)O)ccc1NC(=O)[C@@H]1N[C@@H](CC(C)(C)C)[C@](C#N)(c2ccc(Cl)cc2F)[C@H]1c1cccc(Cl)c1F [RG7388, 4-[[(2R,3S,4R,5S)-3-(3-chloro-2-fluorophenyl)-4-(4-chloro-2-fluorophenyl)-4-cyano-5-(2,2-dimethylpropyl)pyrrolidine-2-carbonyl]amino]-3-methoxybenzoic acid]
- EC50 dose ratio HD NsC/SnC (Senescent cells (SnC)): 1.0
- EC50 (Senescent cells (SnC)): 32.8 µM
- EC50 [3]: 31.5 µM

SMILES: OCc1ccc(-c2ccc(-c3ccc(CO)s3)o2)s1 [RITA, 5,5′-(2,5-Furandiyl)bis-2-thiophenemethanol]
- EC50 dose ratio HD NsC/SnC (Senescent cells (SnC)): 0.9
- EC50 (Senescent cells (SnC)): 254 µM
- EC50 [3]: 223 µM

SMILES: COc1cccc2c1C(=O)c1c(O)c3c(c(O)c1C2=O)C[C@@](O)(C(=O)CO)C[C@@H]3O[C@H]1C[C@H](N)[C@H](O)[C@H](C)O1 [doxorubicin]
- level of senescent cells (luminescence) (p16-3MR mice): significant levels of senescent cells

SMILES: Nc1cccc2c1CN(C1CCC(=O)NC1=O)C2=O (centres unmarked) [lenalidomide]
- level of senescent cells (luminescence) (p16-3MR mice): significant levels of senescent cells

SMILES: Nc1cccc2c1C(=O)N(C1CCC(=O)NC1=O)C2=O (centres unmarked) [omalidomide]
- level of senescent cells (luminescence) (p16-3MR mice): significant levels of senescent cells

SMILES: CC(=O)O[C@H]1C(=O)[C@@]2(C)[C@H]([C@H](OC(=O)c3ccccc3)[C@]3(O)C[C@H](OC(=O)[C@H](O)[C@@H](NC(=O)c4ccccc4)c4ccccc4)C(C)=C1C3(C)C)[C@]1(OC(C)=O)CO[C@@H]1C[C@@H]2O [paclitaxel]
- senescence shown by luminescence (p16-3MR mice; 20 mg/kg three times every two days): Senescence was observed
- levels of mRNA for p16, 3MR and IL-6 in skin (p16-3MR mice; 20 mg/kg three times every two days, versus vehicle): increased
